The series in a line: Area under curve (time =0-6 hours). The format is ADME. Also noted: time < 6 hr. As to conditions: rat.

The structures appear in SMILES notation.

Compound `CN1CCC(CNC(=O)Nc2cc(Cl)cc(Cl)c2)(c2ccc(-c3cccnc3)cc2)CC1` gave an AUC of 1.4 µM.

The values are drawn from ChEMBL document CHEMBL1142772, “Discovery and SAR of biaryl piperidine MCH1 receptor antagonists through solid-phase encoded combinatorial synthesis” (Bioorg Med Chem Lett, 2005).
